In publication PMC6378217, “The lysyl oxidase like 2/3 enzymatic inhibitor, PXS‐5153A, reduces crosslinks and ameliorates fibrosis” (Journal of Cellular and Molecular Medicine, 2018):

Key:
[1] = target: Prostanoid EP4 (Homo sapiens, UniProt P35408); assay: Eurofins Hit Profiling Screen; type: binding; settings: 10 μmol/L
[2] = test system: Myocardial infarction; assay: Myocardial infarction (left coronary artery occlusion); type: in vivo, C57/BL6 mice; settings: 25 mg/kg q.d., p.o., 4 weeks; compared to infarcted untreated animals
Description: The study was performed by CL Laboratory (Baltimore, USA) with approval from the Institutional Animal Care and Use Committee. Myocardial infarction (MI) was induced in C57/BL6 mice by occluding the left coronary artery. The same surgery but without occluding the left coronary artery was used as a sham control. At 24 hours post‐surgery, animals received echocardiography. Infarcted mice with high cardiac function (FS > 40%) or low cardiac function (FS < 10%) were excluded from the study. The remaining mice were treated q.d., p.o., with 25 mg/kg of PXS‐5153A for 4 weeks. At the end of the experiment, echocardiography was performed on mice to assess left ventricular function and remodelling, followed by heart collection. The heart was fixed with 10% formalin. Fibrosis was assessed in the non‐infarct area. Fibrotic blue area and whole non‐infarct area were measured using computerized planimetry (Image J). The fibrotic area was presented as a percentage of the whole non‐infarct area. Three random fields per heart were counted, averaged and a total of 30‐45 fields per group were measured.

[3] = target: T1, Native human LOXL2 (Homo sapiens, UniProt Q9Y4K0); assay: Amplex-Red fluorometric enzymatic activity assay, native human LOXL2 (IMR90 conditioned medium); type: biochemical; settings: 30 minute pre-incubation; average of at least three experiments
T1 construct: separating LOXL2 in the portion at higher molecular weight; host or cells: IMR90 conditioned medium
T1 sequence (Q9Y4K0 26-774): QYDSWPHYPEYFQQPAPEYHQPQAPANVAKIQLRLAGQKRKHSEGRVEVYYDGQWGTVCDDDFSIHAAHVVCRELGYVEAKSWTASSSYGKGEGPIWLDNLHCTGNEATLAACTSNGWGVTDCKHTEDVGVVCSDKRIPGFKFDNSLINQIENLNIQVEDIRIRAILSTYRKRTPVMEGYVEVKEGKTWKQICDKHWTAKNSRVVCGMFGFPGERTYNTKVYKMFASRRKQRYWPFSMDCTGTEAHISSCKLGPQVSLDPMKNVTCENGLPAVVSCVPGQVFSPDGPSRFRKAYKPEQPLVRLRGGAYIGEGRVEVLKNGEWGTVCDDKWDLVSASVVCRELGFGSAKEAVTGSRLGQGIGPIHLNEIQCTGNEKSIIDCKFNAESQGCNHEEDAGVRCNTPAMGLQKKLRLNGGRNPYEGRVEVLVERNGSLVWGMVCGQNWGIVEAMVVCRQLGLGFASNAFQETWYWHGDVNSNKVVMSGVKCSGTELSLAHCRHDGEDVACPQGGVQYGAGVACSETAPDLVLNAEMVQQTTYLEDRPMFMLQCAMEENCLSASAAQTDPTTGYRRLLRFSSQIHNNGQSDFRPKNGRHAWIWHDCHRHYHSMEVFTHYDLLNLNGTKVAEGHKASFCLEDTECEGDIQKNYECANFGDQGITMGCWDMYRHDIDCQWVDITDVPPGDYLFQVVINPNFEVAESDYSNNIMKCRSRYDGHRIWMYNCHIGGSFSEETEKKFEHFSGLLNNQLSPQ
Description: The measurement of the enzymatic activity of all lysyl oxidase family members was based on the detection of hydrogen peroxide with an Amplex‐Red oxidation assay, as described in Zhou et al26 Recombinant human semicarbazide sensitive amine oxidase (SSAO/VAP1), diamine oxidase (DAO) and monoamine oxidases A and B (MAO‐A and MAO‐B) assays were performed as previously described.27 For detailed enzymatic procedures, see supporting information.
The measurement of the enzymatic activity of all lysyl oxidase family members was based on the detection of hydrogen peroxide with an Amplex-Red oxidation assay, as described in Zhou et al.[1]; miniaturised in 384 well format, with the appropriate combination of substrate and assay buffer for each individual enzyme. After a 30 minute pre-incubation of the enzyme at 37 °C with the test compound (or with different incubation times for the time-dependency assay), one volume of reaction mixture containing 120 μM Amplex Red (AR) (Life Technologies), 1.5 U/mL horseradish peroxidase (HRP) (Sigma-Aldrich) and the specific substrate was added to each sample. The relative fluorescence units (RFU) were then measured every 2.5 minutes for 30 minutes at 37°C, excitation 565 nm and emission 590, on a BMG Clariostar Microplate Reader. […]

Prostanoid EP4, sequence (P35408 whole entry): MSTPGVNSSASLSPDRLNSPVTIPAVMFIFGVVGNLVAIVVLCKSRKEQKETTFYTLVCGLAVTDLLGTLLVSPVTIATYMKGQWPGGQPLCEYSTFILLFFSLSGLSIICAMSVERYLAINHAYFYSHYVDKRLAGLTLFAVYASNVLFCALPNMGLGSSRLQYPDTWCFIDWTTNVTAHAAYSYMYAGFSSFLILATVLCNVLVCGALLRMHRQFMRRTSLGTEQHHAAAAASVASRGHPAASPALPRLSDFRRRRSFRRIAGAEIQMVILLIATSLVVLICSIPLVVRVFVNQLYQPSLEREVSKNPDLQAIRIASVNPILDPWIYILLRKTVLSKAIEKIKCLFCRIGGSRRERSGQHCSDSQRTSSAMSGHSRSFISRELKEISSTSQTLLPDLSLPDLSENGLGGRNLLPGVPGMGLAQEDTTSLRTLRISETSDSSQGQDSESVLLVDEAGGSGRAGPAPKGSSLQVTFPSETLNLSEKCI

Cc1c(-c2cccc(S(=O)(=O)N(C)C)c2)c2ncccc2n1C/C(F)=C/CN.Cl.Cl [PXS-5153A]
% inhibition [1]: 11%
ejection fraction [2]: improvement
fractional shortening [2]: improvement
percentage fibrotic coverage area [2]: decrease
IC50 [3]: 0.038 µM
pIC50 ± SD [3]: 7.4 ± 0.12
